Measurements taken from PubChem BioAssay (NCI).
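Assay format: 96-well plates, 48-hour exposure. TGI is the concentration that stops growth completely.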

Key:
Test in all cases: DTP human tumour cell line panel, 48 h
BT-549 breast = test system: BT-549 breast
MCF7 breast = test system: MCF7 breast
HT29 colon = test system: HT29 colon
EKVX NSCLC = test system: EKVX NSCLC
MDA-MB-435 = test system: MDA-MB-435
SW-620 colon = test system: SW-620 colon
UACC-62 melanoma = test system: UACC-62 melanoma
OVCAR-8 ovarian = test system: OVCAR-8 ovarian
SNB-19 CNS = test system: SNB-19 CNS
NCI/ADR-RES ovarian = test system: NCI/ADR-RES ovarian
COLO 205 colon = test system: COLO 205 colon
HCT-116 colon = test system: HCT-116 colon
HCT-15 colon = test system: HCT-15 colon
SK-MEL-2 melanoma = test system: SK-MEL-2 melanoma
UACC-257 melanoma = test system: UACC-257 melanoma
NCI-H522 lung = test system: NCI-H522 lung
LOX IMVI melanoma = test system: LOX IMVI melanoma
HS 578T breast = test system: HS 578T breast
T-47D breast = test system: T-47D breast
PC-3 prostate = test system: PC-3 prostate

| Structure (SMILES) | TGI (BT-549 breast) [µM] | TGI (MCF7 breast) [µM] | TGI (HT29 colon) [µM] | TGI (EKVX NSCLC) [µM] | TGI (MDA-MB-435) [µM] | TGI (SW-620 colon) [µM] | TGI (UACC-62 melanoma) [µM] | TGI (OVCAR-8 ovarian) [µM] | TGI (SNB-19 CNS) [µM] | TGI (NCI/ADR-RES ovarian) [µM] | TGI (COLO 205 colon) [µM] | TGI (HCT-116 colon) [µM] | TGI (HCT-15 colon) [µM] | TGI (SK-MEL-2 melanoma) [µM] | TGI (UACC-257 melanoma) [µM] | TGI (NCI-H522 lung) [µM] | TGI (LOX IMVI melanoma) [µM] | TGI (HS 578T breast) [µM] | TGI (T-47D breast) [µM] | TGI (PC-3 prostate) [µM] |
| --- | --- | --- | --- | --- | --- | --- | --- | --- | --- | --- | --- | --- | --- | --- | --- | --- | --- | --- | --- | --- |
| CC(OCc1ccccc1)C(NC(=O)C1CSSCC(NC(=O)C(Cc2ccccc2)NC(=O)OCc2ccccc2)C(=O)NC(Cc2ccccc2)C(=O)NC(Cc2cn(C=O)c3ccccc23)C(=O)NC(CCCCNC(=O)OCc2ccccc2)C(=O)NC(C(C)OCc2ccccc2)C(=O)N1)C(N)=O (stereo not given) | > 66.5 | 41.1 | > 100 | > 100 | > 100 | > 54.5 | > 100 | > 100 | > 100 | > 100 | 10.5 | 98.7 | > 100 | 28.7 | > 93 | 38.5 | 47 | > 100 | > 63.8 | > 52.4 |
| CC(=O)NNc1nc(C)c(C(/C=C/c2ccc(NC(C)=O)cc2)=N/NS(=O)(=O)c2ccc(C)cc2)s1 | > 100 | > 100 | > 100 | > 100 | > 100 | > 100 | > 100 | > 100 | > 100 | > 100 | > 100 | > 100 | > 100 | > 100 | > 100 | > 100 | > 100 | > 100 | > 100 | > 100 |
| COc1ccccc1OC(=O)/C=C/c1ccccc1 | > 100 | > 100 | > 100 | > 100 | > 100 | > 100 | > 100 | > 100 | > 100 | > 100 | > 100 | > 100 | > 100 | > 100 | > 100 | > 100 | > 100 | > 100 | > 100 | > 100 |
| O=C(CCc1cccc(O)c1)NCCc1cccc(OCc2ccccc2)c1 | 32.5 | 40.4 | 30.7 | 62.2 | 29.6 | > 56.5 | 28.4 | 67.9 | 63.7 | 41.2 | 38 | 30.3 | 49.3 | 32.3 | 34.2 | 33.4 | 29.8 | 40.3 | 55 | 31.8 |
| COP(=O)(C(/C=C/c1ccccc1)OC(C)=O)[C@@H]1CCCC[C@H]1N(CC(C)(C)C)C(C)=O (stereo not given in full) | 33 | > 100 | 28 | 57.8 | 36.2 | 41.2 | 28 | 35.6 | > 100 | 42.2 | 27.1 | 25.6 | 61.6 | 29.8 | 31 | 27.9 | 30.3 | 31.1 | 32.6 | 37.4 |
| O=C1N[C@@H]2c3c(Br)sc(Br)c3C(=O)[C@@H]2N1 | 53 | 10.1 | 9.01 | 17.1 | 4.83 | 4.33 | 15.4 | 10.5 | 26.2 | > 70.6 | 12.1 | 3.88 | 11.1 | 13.7 | 8.19 | 11.2 | 4.28 | 37 | 21.5 | 10.4 |
| O=[N+]([O-])c1ccc(N2N=C(c3ccc4ccccc4c3O)CC2c2ccc(Cl)cc2Cl)c([N+](=O)[O-])c1 (stereo not given) | > 100 | > 100 | > 100 | > 100 | > 100 | > 100 | > 100 | > 100 | > 100 | > 100 | > 100 | > 100 | > 100 | > 100 | > 100 | > 100 | > 100 | 95.3 | > 100 | > 100 |
| COc1ccc(Nc2nc3ccccc3nc2C(=O)O)cc1 | > 100 | > 100 | > 100 | > 100 | > 100 | > 100 | > 100 | > 100 | > 100 | > 100 | > 100 | > 100 | > 100 | > 100 | > 100 | > 100 | > 100 | 85.9 | > 100 | > 100 |
| N#CC(c1ccccc1)(c1ccccc1)[C@@H](c1ccccc1)[C@H](Cc1ccccc1)NS(=O)(=O)c1ccccc1 | > 100 | > 100 | > 100 | > 100 | > 100 | > 100 | > 100 | > 100 | > 100 | > 100 | > 100 | > 100 | > 100 | > 100 | > 100 | > 100 | > 100 | > 100 | > 100 | > 100 |
| CCOC(=O)C(Cc1cn(S(=O)(=O)c2ccc(C)cc2)cn1)P(=O)(OCC)OCC (stereo not given) | > 100 | > 100 | > 100 | > 100 | > 100 | > 100 | > 100 | > 100 | > 100 | > 100 | > 100 | > 100 | > 100 | > 100 | > 100 | > 100 | > 100 | > 100 | > 100 | > 100 |
| O=c1c2ncn(CCCl)c2n(-c2ccccc2)c(=S)n1-c1ccccc1 | > 100 | > 100 | > 100 | > 100 | > 100 | > 100 | > 100 | > 100 | > 100 | > 100 | > 100 | > 100 | > 100 | > 100 | > 100 | > 100 | > 100 | > 100 | > 100 | > 100 |
| Cc1cc(-c2nc3cc(F)ccc3s2)ccc1NC(=O)C(C)N (stereo not given) | 8.49 | 2.7 | 8.04 | 7.03 | 10.5 | 9.77 | 7.7 | 8.62 | 9.63 | 10.2 | 13.6 | 6.57 | 6.67 | 7.87 | 8.88 | 7.99 | 10.1 | 10 | 6.35 | 8.71 |
| Oc1[nH]c2ccccc2c1N=NC(=S)N1CCCC1 | 22.8 | > 56.6 | > 53.5 | > 65.3 | 29.5 | 52.7 | 18.2 | 13.6 | > 43.8 | 6.03 | 27.5 | 21.5 | 4.29 | 33.2 | 29.6 | 38.9 | 18.3 | > 72.9 | 85.1 | 57.8 |
| CC1C(=O)C23OC[C@@]1(C)C1(O)CC[C@@H](C)[C@]21CC3=O (stereo not given in full) | > 100 | > 100 | > 100 | > 100 | > 100 | > 100 | > 100 | > 100 | > 100 | > 100 | > 100 | > 100 | > 100 | > 100 | > 100 | > 100 | > 100 | > 100 | > 100 | > 100 |
| Cc1cc2c(=O)[nH]nc(N)c2c(N)n1 | > 100 | > 100 | > 100 | > 100 | > 100 | > 100 | > 100 | > 100 | > 100 | > 100 | > 100 | > 100 | > 100 | > 100 | > 100 | > 100 | > 100 | > 100 | > 100 | > 100 |
| c1ccc2nc3cc4c(cc3nc2c1)NC12CCCCC1CC1=C(CCCC1)N42 (stereo not given) | 4.72 | > 10 | > 10 | > 10 | 3.9 | > 10 | 9.63 | > 10 | > 10 | > 10 | 3.6 | > 10 | > 10 | 9.53 | 7.03 | 8.37 | > 10 | 8.04 | > 10 | 6.64 |
| CN(NC(=O)c1cccs1)C1=NCCN1 | > 100 | > 100 | > 100 | > 100 | > 100 | > 100 | > 100 | > 100 | > 100 | > 100 | > 100 | > 100 | > 100 | > 100 | > 100 | > 100 | > 100 | > 100 | > 100 | > 100 |
| COc1nc2c(c(=O)n1C)NC(C(O)C(O)CO)C=N2 (stereo not given) | > 10 | > 10 | > 10 | > 10 | > 10 | > 10 | > 10 | > 10 | > 10 | > 10 | > 10 | > 10 | > 10 | > 10 | > 10 | > 10 | > 10 | > 10 | > 10 | > 10 |
| N#CC(c1ccccc1)N(CCc1ccccc1)C(=O)Oc1ccccc1 (stereo not given) | > 100 | > 100 | > 100 | > 100 | > 100 | > 100 | > 100 | > 100 | > 100 | > 100 | > 100 | > 100 | > 100 | > 100 | > 100 | > 100 | > 100 | > 100 | > 100 | > 100 |
| CC(C)(C)c1cc(C(C)(C)C)c2sc(=S)oc2c1O | 23.6 | 27.4 | 30.1 | 11.6 | 26.8 | > 46.7 | 23.4 | 20.9 | 27.6 | 24.4 | 29.6 | 21 | 17.8 | 24.3 | 27.4 | 20.5 | 17.7 | 20.4 | 20.6 | 13.8 |
| O=C(NNC(=O)c1ccccc1Cl)c1ccccc1O | > 100 | > 100 | > 100 | > 100 | > 100 | > 100 | > 100 | > 100 | > 100 | > 100 | > 100 | > 100 | > 100 | > 100 | > 100 | 99.2 | > 100 | > 100 | > 100 | > 100 |
| CCOC(=O)CCC(NC(=O)c1ccc(Oc2nc3ccccc3nc2C(=O)OCC)cc1)C(=O)OCC (stereo not given) | > 100 | > 100 | > 100 | > 100 | > 100 | > 100 | > 100 | > 100 | > 100 | > 100 | > 100 | > 100 | > 100 | > 100 | > 100 | > 100 | > 100 | > 100 | > 100 | > 100 |
| Cc1ccccc1NC(=O)C(=O)Cc1cnc2ccccc2n1 | > 100 | > 100 | > 100 | > 100 | > 100 | > 100 | > 100 | > 100 | > 100 | > 100 | > 100 | > 100 | > 100 | > 100 | > 100 | > 100 | > 100 | > 100 | > 100 | > 100 |
